{
  "source": "patent US9266902B2",
  "about": "“Labelling reagents having a pyridine nucleus bearing a diazomethyl function, process for synthesis of such reagents and processes for detection of biological molecules” (priority 2008, dated 2016)",
  "key": {"[1]": {"test_system": "RNA amplicon (NASBA), 16S RNA of Mycobacterium tuberculosis", "test": "Labelling of RNA amplicon without interim purification, detection by hybridisation on DNA chip", "details": "label 2 mM, 3 mM HCl, no purification", "protocol": "In a 1 mL tube, the following are mixed: • 5 μL of 8 mM label solution (96/4 DMSO/Methanol).\nThe nucleic acids thus labelled are not purified, but are hybridised directly.\nThe labelled nucleic acids are transferred without purification into 480 μL of hybridisation buffer. The samples are hybridised on the DNA chips in the same way as for the previous example."}, "[2]": {"test_system": "RNA amplicon (NASBA), 16S RNA of Mycobacterium tuberculosis", "details": "label 2.5 mM, hybridisation at 45° C. up to 24 hrs", "method": "The solution is mixed by vortex then incubated for 10 minutes at 65° C.\nThe labelled nucleic acids were purified on a QiaQuick (PCR purification kit, Qiagen) column using the purification protocol recommended by the manufacturer. The elution volume is 100 μL.\nAfter purification, the labelled nucleic acids are transferred into 400 of hybridisation buffer. The samples are hybridised on the DNA chips designed for the analysis of the “GenBank” M20940 sequence of the 16S RNA of Mycobacterium tuberculosis. […] The hybridisation stages were performed by injecting. 80 μL of the hybridisation mixture into the chip then maintaining this in a hybridisation oven at 45° C. for 0.5 hour, 2 hours, 6.5 hours or 24 hours.\n300 μL of pure water; 300 μL of 100 mM Tris buffer pH 7/1 M NaCl/0.05% Tween 20/0.005% antifoamant; 6 μL of BSA (50 mg/mL); 6 μL of SA-PE (300 μg/mL).\nThe reading of the fluorescence emitted at the surface of the DNA chip after labelling and hybridisation and the generation of data in terms of signal intensity and percentage homology are performed with the reading systems and software supplied by Affymetrix. The reading system supplies signal and background noise intensities expressed in rfu (“relative fluorescence unit”). The percentage homology is given relative to a reference sequence which in this case is the sequence of Mycobacterium tuberculosis."}, "[3]": {"test": "Stability in the dry form at +4° C. after lyophilisation (HPLC purity over time)", "details": "250 mM in 10 mM Tris HCl pH 7.5 and 10% trehalose, lyophilised one night"}, "[4]": {"test": "Stability in a liquid medium at ambient temperature (HPLC purity over time)", "type": "physicochemical", "details": "125 mM in 96/4 DMSO/methanol, ambient temperature (22° C.), at 10 days"}},
  "data": [
    {"substance": "Pyridine Diazo Biotin [PyDB]", "values": [
      {"measurement": "background noise compared to BBP", "setting": "[1]", "value": "reduced background noise"},
      {"measurement": "percentage homology", "setting": "[1]", "value": "higher"},
      {"measurement": "specific signals (specific hybridisation) compared to BBP", "setting": "[1]", "value": "improved"},
      {"measurement": "stability of labelled amplicons in the course of hybridisation", "setting": "[2]", "value": "perfectly stable"},
      {"measurement": "stability to lyophilisation", "setting": "[3]", "value": "perfectly stable"}
    ]},
    {"substance": "[Bio-EG3]2-PDAM [BBP, reference compound]", "values": [
      {"measurement": "purity of the initial compound", "setting": "[4]", "value": "< 10", "unit": "%"},
      {"measurement": "percentage homology", "setting": "[1]", "value": "relatively low"}
    ]}
  ]
}
